From ChEMBL document CHEMBL4732189, “A facile synthesis of diaryl pyrroles led to the discovery of potent colchicine site antimitotic agents” (Eur J Med Chem, 2021)

Legend:
[1] = test system: HeLa; assay: cells; settings: Homo sapiens, 72 h
Description: Antiproliferative activity against human HeLa cells assessed as reduction in cell viability after 72 hrs by MTT assay

[2] = test system: HL-60; assay: Antiproliferative activity against human HL-60 cells assessed as reduction in cell viability after 72 hrs by MTT assay; assay type: functional, cell-based; settings: HL-60, 72 h
[3] = test system: SEM cells; assay: Antiproliferative activity against human SEM cells assessed as reduction in cell viability after 72 hrs by MTT assay; assay type: functional, cell-based
[4] = test system: CCRF-CEM; assay: Antiproliferative activity against human CCRF-CEM cells assessed as reduction in cell viability after 72 hrs by MTT assay; assay type: functional, cell-based
[5] = test system: HT-29; assay: cells; settings: Homo sapiens, HT-29, 72 h
[6] = test system: A549; assay: cells; settings: Homo sapiens, A549, 72 h
Description: Antiproliferative activity against human A549 cells assessed as reduction in cell viability after 72 hrs by MTT assay

[7] = organism: Bos taurus; assay: Displacement of [3H]colchicine from bovine brain tubulin at 5 uM by DEAE-cellulose filter method relative to control; assay type: tissue-based
[8] = Inhibition of bovine brain tubulin polymerization incubated for 15 mins followed by GTP addition and measured after 20 mins by spectrophotometric method; assay type: tissue-based, Bos taurus

CCCOc1ccc(-c2c[nH]cc2-c2cc(OC)c(OC)c(OC)c2)cc1
IC50 [1]: 370 nM | IC50 [2]: 3620 nM | IC50 [3]: 913 nM | IC50 [4]: 4240 nM | IC50 [5]: 703 nM | IC50 [6]: 683 nM

CCOc1ccc(-n2cccc2-c2cc(OC)c(OC)c(OC)c2)cc1
inhibition [7]: 57% | IC50 [8]: 2300 nM | IC50 [1]: 3420 nM | IC50 [2]: 430 nM | IC50 [3]: 270 nM | IC50 [4]: 3020 nM | IC50 [5]: 5520 nM | IC50 [6]: > 10000 nM

CCCc1ccc(-c2cccn2-c2cc(OC)c(OC)c(OC)c2)cc1
IC50 [1]: > 10000 nM | IC50 [2]: > 10000 nM | IC50 [3]: > 10000 nM | IC50 [4]: 4910 nM | IC50 [5]: > 10000 nM | IC50 [6]: > 10000 nM

COc1cc(-n2cccc2-c2ccc(C)c(C)c2)cc(OC)c1OC
IC50 [1]: 3280 nM | IC50 [2]: 4010 nM | IC50 [3]: 750 nM | IC50 [4]: 3200 nM | IC50 [5]: 7810 nM | IC50 [6]: > 10000 nM

COc1ccc(-c2cccn2-c2cc(OC)c(OC)c(OC)c2)cc1Cl
IC50 [1]: 9810 nM | IC50 [2]: 3220 nM | IC50 [3]: 550 nM | IC50 [4]: 2910 nM | IC50 [5]: > 10000 nM | IC50 [6]: > 10000 nM

CCc1ccc(-c2cccn2-c2cc(OC)c(OC)c(OC)c2)cc1
IC50 [1]: 9920 nM | IC50 [2]: 1130 nM | IC50 [3]: 310 nM | IC50 [4]: 3010 nM | IC50 [5]: 5440 nM | IC50 [6]: > 10000 nM

COc1cc(-c2c[nH]cc2-c2ccc(OC(F)(F)F)cc2)cc(OC)c1OC
IC50 [1]: 5230 nM | IC50 [2]: 5950 nM | IC50 [3]: 4790 nM | IC50 [4]: 6260 nM | IC50 [5]: 5460 nM | IC50 [6]: 4230 nM

COc1cc(-c2c[nH]cc2-c2ccc(C)cc2)cc(OC)c1OC
inhibition [7]: 83% | IC50 [8]: 1200 nM | IC50 [1]: 54 nM | IC50 [2]: 31.7 nM | IC50 [3]: 17.2 nM | IC50 [4]: 47 nM | IC50 [5]: 130 nM | IC50 [6]: 98 nM

COc1cc(-c2cccn2-c2ccc(N(C)C)cc2)cc(OC)c1OC
IC50 [1]: 5610 nM | IC50 [2]: 2620 nM | IC50 [3]: 610 nM | IC50 [4]: 3910 nM | IC50 [5]: 7120 nM | IC50 [6]: > 10000 nM

COc1cc(-n2cccc2-c2cc(C)c(OC)c(C)c2)cc(OC)c1OC
IC50 [1]: > 10000 nM | IC50 [2]: > 10000 nM | IC50 [3]: 7920 nM | IC50 [4]: 9110 nM | IC50 [5]: > 10000 nM | IC50 [6]: > 10000 nM

COc1ccc(-c2cccn2-c2cc(OC)c(OC)c(OC)c2)cc1C
IC50 [1]: 9810 nM | IC50 [2]: 3930 nM | IC50 [3]: 1010 nM | IC50 [4]: 2510 nM | IC50 [5]: > 10000 nM | IC50 [6]: > 10000 nM

COc1cc(-c2cccn2-c2ccc3ccccc3c2)cc(OC)c1OC
inhibition [7]: 70% | IC50 [8]: 1600 nM | IC50 [1]: 430 nM | IC50 [2]: 400 nM | IC50 [3]: 190 nM | IC50 [4]: 1410 nM | IC50 [5]: 840 nM | IC50 [6]: 5520 nM

COc1cc(-n2cccc2-c2ccc(SC)cc2)cc(OC)c1OC
IC50 [1]: > 10000 nM | IC50 [2]: 810 nM | IC50 [3]: 200 nM | IC50 [4]: 2810 nM | IC50 [5]: > 10000 nM | IC50 [6]: > 10000 nM

COc1cc(-c2c[nH]cc2-c2ccc(C(F)(F)F)cc2)cc(OC)c1OC
IC50 [1]: 445 nM | IC50 [2]: 933 nM | IC50 [3]: 343 nM | IC50 [4]: 1340 nM | IC50 [5]: 865 nM | IC50 [6]: 408 nM

COc1cc(-c2cccn2-c2cccc3ccccc23)cc(OC)c1OC
IC50 [1]: > 10000 nM | IC50 [2]: > 10000 nM | IC50 [3]: 7120 nM | IC50 [4]: 8610 nM | IC50 [5]: > 10000 nM | IC50 [6]: > 10000 nM

COc1cc(-c2cccn2-c2ccc(C)cc2)cc(OC)c1OC
inhibition [7]: 55% | IC50 [8]: 2400 nM | IC50 [1]: 3310 nM | IC50 [2]: 630 nM | IC50 [3]: 140 nM | IC50 [4]: 2410 nM | IC50 [5]: 5220 nM | IC50 [6]: > 10000 nM

COc1cc(-n2cccc2-c2ccc3ccccc3c2)cc(OC)c1OC
inhibition [7]: 74% | IC50 [8]: 1600 nM | IC50 [1]: 410 nM | IC50 [2]: 400 nM | IC50 [3]: 150 nM | IC50 [4]: 1310 nM | IC50 [5]: 650 nM | IC50 [6]: 3100 nM

COc1ccc(-c2c[nH]cc2-c2cc(OC)c(OC)c(OC)c2)cc1F
IC50 [1]: 33 nM | IC50 [2]: 33.6 nM | IC50 [3]: 5.3 nM | IC50 [4]: 53 nM | IC50 [5]: 48 nM | IC50 [6]: 203 nM

COc1cc(-n2cccc2-c2cc3ccccc3s2)cc(OC)c1OC
IC50 [1]: 950 nM | IC50 [2]: 3010 nM | IC50 [3]: 290 nM | IC50 [4]: 2920 nM | IC50 [5]: 5910 nM | IC50 [6]: > 10000 nM

COc1cccc(-n2cccc2-c2cc(OC)c(OC)c(OC)c2)c1
IC50 [1]: > 10000 nM | IC50 [2]: 3110 nM | IC50 [3]: 2010 nM | IC50 [4]: 5010 nM | IC50 [5]: > 10000 nM | IC50 [6]: > 10000 nM

COc1cc(-c2c[nH]cc2-c2ccc3ccccc3c2)cc(OC)c1OC
IC50 [1]: 137 nM | IC50 [2]: 54 nM | IC50 [3]: 32 nM | IC50 [4]: 87.9 nM | IC50 [5]: 255 nM | IC50 [6]: 228 nM

COc1cc(-c2cccn2-c2ccc(C)c(C)c2)cc(OC)c1OC
IC50 [1]: > 10000 nM | IC50 [2]: 4010 nM | IC50 [3]: 2010 nM | IC50 [4]: 3510 nM | IC50 [5]: > 10000 nM | IC50 [6]: > 10000 nM

CCSc1ccc(-c2cccn2-c2cc(OC)c(OC)c(OC)c2)cc1
IC50 [1]: 3910 nM | IC50 [2]: 3720 nM | IC50 [3]: 1550 nM | IC50 [4]: 4630 nM | IC50 [5]: 9420 nM | IC50 [6]: > 10000 nM

CCc1ccc(-c2c[nH]cc2-c2cc(OC)c(OC)c(OC)c2)cc1
IC50 [1]: 297 nM | IC50 [2]: 164 nM | IC50 [3]: 48 nM | IC50 [4]: 226 nM | IC50 [5]: 289 nM | IC50 [6]: 257 nM

CCc1ccc(-n2cccc2-c2cc(OC)c(OC)c(OC)c2)cc1
IC50 [1]: > 10000 nM | IC50 [2]: 3610 nM | IC50 [3]: 1330 nM | IC50 [4]: 4310 nM | IC50 [5]: 8340 nM | IC50 [6]: > 10000 nM

COc1ccc(/C=C\c2cc(OC)c(OC)c(OC)c2)cc1O [COMBRETASTATIN A4]
IC50 [3]: 5 nM | IC50 [4]: 2 nM

COCOc1ccc(-c2c[nH]cc2-c2cc(OC)c(OC)c(OC)c2)cc1
IC50 [1]: > 10000 nM | IC50 [2]: > 10000 nM | IC50 [3]: > 10000 nM | IC50 [4]: > 10000 nM | IC50 [5]: > 10000 nM | IC50 [6]: 8000 nM

CCSc1ccc(-c2c[nH]cc2-c2cc(OC)c(OC)c(OC)c2)cc1
IC50 [1]: 386 nM | IC50 [2]: 2660 nM | IC50 [3]: 480 nM | IC50 [4]: 3070 nM | IC50 [5]: 630 nM | IC50 [6]: 336 nM

COc1ccc(-c2c[nH]cc2-c2cc(OC)c(OC)c(OC)c2)cc1
IC50 [1]: 28 nM | IC50 [2]: 255 nM | IC50 [3]: 34.6 nM | IC50 [4]: 117 nM | IC50 [5]: 31 nM | IC50 [6]: 88 nM

COc1ccc(-c2c[nH]cc2-c2cc(OC)c(OC)c(OC)c2)cc1Cl
IC50 [1]: 297 nM | IC50 [2]: 177 nM | IC50 [3]: 69.3 nM | IC50 [4]: 280 nM | IC50 [5]: 279 nM | IC50 [6]: 243 nM

COc1cc(-c2c[nH]cc2-c2cc3ccccc3s2)cc(OC)c1OC
IC50 [1]: 43 nM | IC50 [2]: 35.3 nM | IC50 [3]: 37.3 nM | IC50 [4]: 155 nM | IC50 [5]: 383 nM | IC50 [6]: 228 nM

COc1ccc(-c2cccn2-c2cc(OC)c(OC)c(OC)c2)cc1
IC50 [1]: 1920 nM | IC50 [2]: 470 nM | IC50 [3]: 150 nM | IC50 [4]: 2510 nM | IC50 [5]: 2120 nM | IC50 [6]: > 10000 nM

COc1cc(-c2cccn2-c2cc(OC)c(OC)c(OC)c2)ccc1C
IC50 [1]: > 10000 nM | IC50 [2]: 3620 nM | IC50 [3]: 2310 nM | IC50 [4]: 2810 nM | IC50 [5]: > 10000 nM | IC50 [6]: > 10000 nM
